These results are taken from patent publication US20210402011A1, “A COMPOUND FOR THE DETECTION OF HNO IN BIOLOGICAL SYSTEMS” (COUNCIL. OF SCIENTIFIC AND INDUSTRIAL RESEARCH, priority 2016, published 2021).

Data set [1] relates to RAW 264.7 cells. Put plainly: MTT assay, in vitro cytotoxicity on RAW 264.7 cells. It is filed as cell-based. The method, then:
The in vitro cytotoxicity of ER-HNO on RAW 264.7 cells were determined by conventional MTT (3-(4, 5-Dimethylthiazol-2-yl)-2, 5-diphenyltetrazolium bromide) assay. RAW 264.7 cells (5×103) were seeded in each well of a 96 well plate and cultured in a 37° C. incubator supplied with 5% CO2. Cells were maintained in DMEM medium, supplemented with 10% Foetal Bovine Serum and 100 Units of Penicillin Streptomycin antibiotics. After 24 hours the cells were treated with different concentrations of the ER-HNO in triplicates for 24 hours. After the treatment, cells were added with […] of MTT reagent. The plate was then incubated for 4 hours at 37° C. 100 μl of Isopropyl Alcohol was added to each well. Optical density was measured at 570 nm using Multiskan Go (Thermo Scientific) to find the concentration of the cell inhibition. IC50 value has been calculated to be 90 μM.
The formula used for the calculation of the MTT assay for evaluation of the cell viability was as follows:
Cell viability (%)=(Means of absorbance value of treated group/Means of absorbance value of untreated control)×100.
(In general: Tetrazolium dyes change colour on reduction, which living cells bring about.)

Data set [2] relates to Hct116 cells. Put plainly: Flow cytometry, DCFDA staining. In kind it is cell-based. Particulars: Angeli's salt 10 uM, 30 uM probe, 2 hrs. The method, then: For DCFDA staining, HCT116 cells were cultured in DMEM medium containing 5 mM glucose supplemented with 10% FBS and 100 Units of antibiotics. Prior to the treatment processes, DMEM medium with 1% FBS was treated with N-Ethylmalemide (NEM) 1 mM and this medium was used to culture the cells further. Cells were treated with Angeli's salt 10 uM, L 30 uM or both for 2 hrs. After treatment cells were harvested by trypsinization and washed with complete DMEM media by centrifugation. Pellet was suspended in 1 ml of PBS buffer. 10 μM DCFDA (Sigma) was added to cells followed by incubation at 37° C. 5% CO2 incubator for 45 mins. DCFDA stained cells were analyzed in BD FACS Canto II using FITC channel. For Annexin V staining cultured HCT116 cells were harvested after trypsinization and washed with 1×PBS buffer. 500 ul of Annexin V binding buffer was used to re-suspend the cells. 5 ul of Annexin-V FITC antibody added to the re-suspended cell and incubated in dark for 5 mins. Antibody stained cells were then analyzed using BD Calibur FACs in FITC channel. The flow cytometry experiment confirmed that probe ER-HNO is capable of reducing RNS & ROS level induced by HNO [FIG. 5 (b)].
For orientation: In flow cytometry, cells or beads pass a laser one at a time.

Data set [3] deals with Hct116 cells. The data set is described as follows: CLSM imaging of HNO in Hct116 cells. The settings on record: Hct116, probe 1 μM 15 min, then HNO 20 μM. In kind it is cell-based. The method, then:
(§1) An MTT assay confirmed the non-toxic nature of probe ER-HNO towards live Hct116. Therefore, ER-HNO is tested as an imaging reagent for the detection of HNO in Hct116 colon cancer. The cells are incubated with probe ER-HNO (1 μM) for 15 min at 37° C. in acetonitrile-PBS buffer (0.2:99.8, v/v) at pH 7.2 and no intracellular fluorescence is observed.
For confocal studies, Hct116 cells (3×10^5) were seeded on cover slips placed in 6 well plates. After 24 hours, Hct116 cells were treated with ER-HNO (1 μM) for 30 minutes at 37° C. in a 5% CO2 air environment. Cells were then washed thrice with Phosphate Buffer (1×PBS) and fixed with 4% PFA for 20 minutes and washed again with IX PBS. Nail paint was used to seal the cover slips mounted on the glass slides for each well plates. Again Hct116 cells were pre-treated with ER-HNO (1 μM) for 15 minutes, then Hct116 cells were further expose to Angeli's salt (HNO donor), then cells were washed thrice with media and followed by incubation with ER-HNO (1 μM) for another 15 minutes under same conditions. Cells were again washed with 1×PBS buffer and fixed with 4% PFA for 20 minutes and washed again with 1×PBS. Confocal laser scanning microscopic (CLSM) images were acquired in Olympus Fluoview Microscope with λExt/λMon=530/573 nm.

Data set [4] relates to Hct116 cells. Put plainly: MTT assay towards live Hct116. It is filed as cell-based. The method, then: as §1
Data set [5] in a line: Fluorescence emission studies for HNO detection in aq. PBS buffer-CH3CN. The method, then: The spectroscopic properties of ER-HNO in aq. PBS buffer medium under physiological pH medium. No significant difference is observed in the electronic spectra of ER-HNO and ER-S. In order to check the response of ER-HNO probe (10 uM) with in presence of 20 mole equivalent of various ROS and RNS (HNO, HOCl, H2O2, —OH, TBHP, NO3^−, NO2^−, benzoyl peroxide, S^2− and ascorbate) emission spectra are recorded in aq. […] A turn ON emission response is observed for probe ER-HNO, only in presence of HNO with λEms^Max=580 nm (λExt=530 nm). Moreover, no significant changes are observed in presence of different anionic, cationic as well as biothiols under identical experimental condition. The effects of pH on emission spectrum of probe ER-HNO is also investigated. […] Therefore, to explore the bio analytical application, all the studies are carried out at physiological pH medium.
An enhancement in emission signal are observed at λMax=586 nm (Φ=0.105, for λExt=530 nm) with gradual increasing [HNO] (FIG. 1B). A good linearity is observed between emission intensity and concentration of HNO in the range of 2-15 uM, with a lower detection limit of 2 μM. […] PBS buffer medium.
Stock solution of probe ER-HNO (1×10^−4M) was prepared in HPLC grade acetonitrile. All the analytes stock solution (1×10^−2M) was prepared in aqueous HEPES buffer (10 mM) medium at pH 7.2. […]

For another data set, the system named is SERCA2. Put plainly: Western blot monitoring of SERCA2. It is filed as cell-based. The settings on record: HCT116 cells, Angeli's salt 10 uM, ER-HNO 30 μM, 24 hrs. The method, then:
HCT116 cells were cultured in DMEM medium containing 10% Fetal Bovine Serum (FBS) supplemented with 100 Units of Penicillin Streptomycin antibiotics. Cells were treated with Angeli's salt 10 uM, ER-HNO 30 μM or both for 24 hrs. Prior to the treatment processes, DMEM medium was treated with N-Ethylmalemide (NEM) 1 mM and this medium was used to culture the cells. Post 24 hrs cells harvested and whole cell lysate proteins extracted. 40 ug of the proteins were resolved in SDS PAGE gel and transferred into PVDF membrane using Western Blot methods. The blot was over-night blocked with 5% Bovine Serum Albumin (BSA) at 4° C. 1:4000 dilution of SERCA2 antibody was to probe the blot for 2 hrs at room-temperature (RT). After three washes with 1×TBST, 1:4000 dilution of anti-rabbit HRP conjugated antibody was used to probe the blot for 1 hr at RT. After three washes with IX TBST, the blot was developed using auto-radiography in X-ray film.

In data set [6] the test system is RAW 264.7 cells. The data set is described as follows: CLSM imaging of HNO in RAW 264.7 cells. The settings on record: RAW 264.7, probe 1.0 μM 15 min 37° C., then AS. It is filed as cell-based. The method, then: The toxicity of the probe molecule toward live RAW 264.7 macrophages cells and cytotoxicity assays confirmed the low toxicity of the probe. The results encouraged to explore the use of the probe as an imaging reagent for the intracellular detection of HNO in these macrophage cells. Cells in DMEM culture media are incubated with ER-HNO (1.0 μM) for 15 min at 37° C. and subsequently viewed under confocal laser scanning microscope (CLSM) using a 530 nm laser as an excitation source.
RAW 264.7 cells were seeded on cover slips placed in 6 well plates. After 24 hours cells washed with DMEM medium then cells were treated with ER-HNO (1 μM) for 25 minutes. Cells were then washed thrice with culture medium and further treated with Angeli's salt (HNO donor) of different concentration for 30 min. After that cells were washed again with Phosphate Buffer Saline (3×PBS). Then cells were fixed with 4% PFA for 10 min. Again cells were washed thrice and then cover slips mounted using mounting medium. Nail paints was used to seal the coverslips mounted on the glass slides. Images were acquired by using Olympus FluoView FV-1000 Confocal Microscope.
RAW 264.7 cells were seeded on Coverslips (22 mm×22 mm, 170±5 μm square Cover glasses) placed in 6-well plates in DMEM culture medium containing (10% FBS and 1% penicillin-streptomycin) for 24 h at 37° C. 5% CO2. […]

Another data set deals with Artemia nauplii. Put plainly: Fluorescence imaging of Artemia nauplii. It is filed as in vivo. The settings on record: probe 1 μM 30 minutes, then HNO. The method, then: Imaging of Artemia nauplii by luminescence was performed using a fluorescence microscope with a 20×, 0.4 NA microscope objective (Olympus), coupled to an intensified CCD camera. The Artemia nauplii were imaged in both bright-field and epifluorescence geometries. The latter was enabled by a fluorescence filter set. The illumination intensity was about 10 W/mm^2.

What is called IC50 is the concentration that gives 50% inhibition.

As to “(E)-4-(2-(5,5-difluoro-1,7,9-trimethyl-10-phenyl-5H-5l4,6l4-dipyrrolo[1,2-c:2′,1′-f][1,3,2]diazaborinin-3-yl)vinyl)phenyl 2-(diphenylphosphanyl)benzoate [ER-HNO]”, the IC50 with RAW 264.7 cells [1] (RAW 264.7 cells, 24 hours treatment, read-out: IC50 (MTT cell viability)) was found to be 90 µM. For the same substance, the “toxicity toward live RAW 264.7 macrophages cells” value with RAW 264.7 cells [1] (cytotoxicity assays) was “low toxicity”. Moreover, in the data set on Hct116 cells [2], the “RNS induced by Angeli's Salt (DCFDA staining)” value is on record as “reduced”. Also, the “intracellular fluorescence after HNO exposure” value in the data set on Hct116 cells [3] was “strong intracellular fluorescence”. Moreover, the “toxicity towards live Hct116 (MTT assay)” value with Hct116 cells [4] is reported as “non-toxic”. Further, the “emission intensity of the probe within pH range 4-10” value in data set [5] (pH 4-10) is reported as “remains unaltered”. Further, in data set [5] (probe 10 uM, 20 mole equivalent of HOCl, H2O2, OH, TBHP, NO3-, NO2-, benzoyl peroxide, S2-, ascorbate), the “change in emission intensity in presence of other ROS/RNS (selectivity)” value is on record as “no change in emission intensity”. Also, the “counteraction of the stabilized expression of SERCA2” value in the data set with SERCA2 is given as “at least 50%”. Also, the “intracellular fluorescence after exposure to AS” value in the data set with RAW 264.7 cells [6] is reported as “strong intracellular fluorescence”. In addition, the “fluorescence in Artemia nauplii on exposure to HNO” value in the data set with Artemia nauplii is listed as “strong fluorescence”.
